From BindingDB's records for doi:10.1016/j.bmcl.2016.03.041 (Eli Lilly, 2016)

Tests used:
[1] = target: T1, Prostaglandin E2 receptor EP3 subtype (Homo sapiens, UniProt P43115); experiment: Binding affinity to human EP3
T1 sequence (P43115 whole entry): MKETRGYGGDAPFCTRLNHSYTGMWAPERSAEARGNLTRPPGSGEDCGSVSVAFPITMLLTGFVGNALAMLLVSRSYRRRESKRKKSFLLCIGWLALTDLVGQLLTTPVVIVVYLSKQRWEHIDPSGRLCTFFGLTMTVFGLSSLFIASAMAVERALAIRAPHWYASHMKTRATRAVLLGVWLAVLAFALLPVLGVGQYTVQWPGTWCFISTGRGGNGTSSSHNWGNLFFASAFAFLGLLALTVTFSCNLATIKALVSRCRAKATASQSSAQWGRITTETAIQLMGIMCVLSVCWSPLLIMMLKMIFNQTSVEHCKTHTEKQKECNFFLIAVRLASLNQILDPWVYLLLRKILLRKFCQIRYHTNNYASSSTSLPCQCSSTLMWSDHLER

[2] = target: Prostaglandin E2 receptor EP2 subtype (Homo sapiens, UniProt P43116); experiment: Binding affinity to human EP2
[3] = target: T2, Prostaglandin E2 receptor EP1 subtype (Homo sapiens, UniProt P34995); experiment: Binding affinity to human EP1
T2 sequence (P34995 whole entry): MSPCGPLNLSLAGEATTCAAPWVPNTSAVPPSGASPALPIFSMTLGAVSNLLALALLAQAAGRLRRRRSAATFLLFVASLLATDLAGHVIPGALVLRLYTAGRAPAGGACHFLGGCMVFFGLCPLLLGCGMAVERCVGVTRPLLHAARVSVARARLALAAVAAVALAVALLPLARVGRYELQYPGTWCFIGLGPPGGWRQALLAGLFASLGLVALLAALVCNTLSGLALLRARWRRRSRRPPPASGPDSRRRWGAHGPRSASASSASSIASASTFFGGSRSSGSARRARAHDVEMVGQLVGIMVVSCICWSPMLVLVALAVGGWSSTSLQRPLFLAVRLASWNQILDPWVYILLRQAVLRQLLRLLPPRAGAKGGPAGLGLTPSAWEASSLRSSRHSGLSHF

Sequence of Prostaglandin E2 receptor EP2 subtype (P43116 whole entry): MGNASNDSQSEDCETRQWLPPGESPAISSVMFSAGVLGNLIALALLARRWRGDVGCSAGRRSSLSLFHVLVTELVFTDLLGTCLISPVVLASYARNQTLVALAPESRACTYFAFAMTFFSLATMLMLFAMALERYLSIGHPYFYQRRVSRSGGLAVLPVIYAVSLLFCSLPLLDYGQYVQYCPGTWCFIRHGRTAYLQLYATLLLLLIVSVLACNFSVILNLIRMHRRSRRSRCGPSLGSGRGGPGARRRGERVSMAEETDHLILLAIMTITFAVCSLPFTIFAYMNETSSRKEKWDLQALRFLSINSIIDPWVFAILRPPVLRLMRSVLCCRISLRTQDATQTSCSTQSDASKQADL

Structure (SMILES): Cc1ccc(N2CCC(O)CC2)nc1C(=O)Nc1c(C)cc(C(=O)O)cc1C [US8933099, 1]
- Ki [1]: > 14 µM
- Ki [2]: > 18.9 µM
- Ki [3]: > 17.5 µM
